Results reported in patent US20250144125A1 (priority 2021, published 2025).
“And” between values parts separate entries of the source, which are not always exact repeats. Equal values may be shown once. Read-outs that look alike come from different tables or passages of the source.

How the values were obtained:
[1] = tested on: chikungunya virus (S27 strain); assay: microbe, parasite or virus in culture; type: cell-based
[2] = tested on: enterovirus-71 (Tainan/4643/98 strain); assay: organism not typed; type: cell-based
[3] = tested on: yellow fever virus (YFV 17D strain); assay: microbe, parasite or virus in culture; type: cell-based
[4] = tested on: MERS-CoV (EMC strain); assay: microbe, parasite or virus in culture; type: cell-based
[5] = in vitro; details: human
[6] = tested on: tacaribe virus (TRVL11573 strain); assay: microbe, parasite or virus in culture; type: cell-based; details: read-out: Tacaribe virus EC50 TRVL 11573 strain
[7] = tested on: measles virus (CC strain); assay: microbe, parasite or virus in culture; type: cell-based
[8] = tested on: Vero 76 cells
[9] = tested on: influenza A (H1N1) virus (California/07/2009 strain); assay: microbe, parasite or virus in culture; type: cell-based; details: for EC50: read-out: EC50 California/07/2009 strain
[10] = tested on: Huh7 cells
[11] = tested on: Vero cells
[12] = in vitro; details: African green monkey, Tacaribe virus CC50 Vero
[13] = in vitro; details: African green monkey
[14] = in vitro; details: dog, CC50 MDCK
[15] = tested on: human norovirus genogroup I NoV (Norwalk virus replicon) in HG23 cells; assay: Human norovirus antiviral assay, qRT PCR in HG23 NoV replicon cells; type: cell-based; details: for EC50: HG23 Nov replicon cells, qRT PCR intracellular RNA, read-out: EC50 human norovirus
[16] = Cytotoxicity in the human norovirus replicon assay (HG23 cells); details: human, HG23 Nov replicon cells
[17] = tested on: dengue virus 2 (New Guinea C strain); assay: microbe, parasite or virus in culture; type: cell-based
[18] = tested on: MDCK cells
[19] = tested on: tacaribe virus (TRVL11573 strain); type: cell-based
[20] = tested on: HG23 Nov replicon cells; assay: Cytotoxicity in the human norovirus replicon assay (HG23 cells); details: read-out: CC50 human norovirus assay
[21] = tested on: enterovirus-71 (Tainan/4643/98 strain); assay: Secondary assay (virus yield reduction / neutral red CPE) against enterovirus-71 in Vero 76 cells; type: cell-based
[22] = tested on: HCV; details: literature; read-out: EC50 against HCV (RNA replication); cited from earlier work
[23] = Chikungunya virus, Vero 76, read-out: EC50 chikungunya virus
[24] = Vero 76, read-out: EC50 enterovirus-71
[25] = Yellow fever virus, Huh-7, read-out: Yellow fever virus EC50 YFV 17D strain
[26] = Middle East respiratory syndrome-related coronavirus, Vero 76, read-out: MERS-CoV EC50 EMC strain
[27] = Mammarenavirus tacaribeense, Vero
[28] = Measles morbillivirus, Vero 76, read-out: Measles EC50 CC strain
[29] = read-out: Measles EC50 CC strain
[30] = read-out: MERS-CoV CC50 Vero 76, Neutral Red, MERS-CoV screen
[31] = read-out: Yellow fever virus CC50 Huh7, Neutral Red, YFV screen
[32] = Dengue virus, Huh-7, read-out: EC50 dengue virus 2
[33] = read-out: EC50 chikungunya virus
[34] = read-out: Yellow fever virus EC50 YFV 17D strain
[35] = read-out: MERS-CoV EC50 EMC strain
[36] = read-out: MERS-CoV CC50 Vero 76, Visual, MERS-CoV screen
[37] = read-out: Yellow fever virus CC50 Huh7, Visual, YFV screen
[38] = Vero 76, Neutral Red (Cytopathic effect/Toxicity)
[39] = Vero 76, Visual (Virus yield reduction)

Row | SMILES | EC50 [2, 24] [µM] | EC50 [3, 25] [µM] | CC50 ([5]; CC50) [µM] | EC50 [6, 27] [µM] | EC50 [6] [µM] | EC50 [7, 28] [µM] | EC50 [7, 29] | CC50 [8, 30] [µM] | EC50 ([9]; Influenza A virus, H1N1, MDCK) [µM] | CC50 [10, 31] [µM] | CC50 ([11]; African green monkey) [µM] | CC50 [12] [µM] | CC50 ([13]; MERS-CoV CC50 Vero 76) [µM] | CC50 ([13]; Measles CC50 Vero 76) [µM] | EC50 ([15]; Norwalk virus) [µM] | CC50 at 3 days [16] [µM] | EC50 [17, 32] [µM] | EC50 ([17]; read-out: EC50 dengue virus 2) [µM] | EC50 ([2]; read-out: EC50 enterovirus-71) [µM] | EC50 [9] | further results
1 | OC[C@H]1O[C@@H](n2ccc3c(C4CC4)ncnc32)[C@H](O)[C@@H]1O [3.1a, 6-Cyclopropyl-9-β-D-ribofuranosyl-7-deazapurine, reference compound] | > 100 | > 100 | > 100 | 100 | > 100 | 63 | 56 µM | > 100 | > 100 | > 100 | > 100 | 100 | > 100 | 100 | 2.52 | > 100 | 32 | 45 | – | – | activity against chikungunya virus in words [1]: inactive; EC50 [1, 23]: > 100 µM; EC50 [4, 26]: > 100 µM; CC50 ([5]; Yellow fever virus CC50 Huh7): 100 µM; CC50 ([8]; African green monkey): > 100 µM; activity against influenza A (H1N1) in words [9]: not active; CC50 [14]: > 100 µM
2 | OC[C@H]1O[C@@H](n2ccc3c(C#CC4CC4)ncnc32)[C@H](O)[C@@H]1O [3.1c, 6-Cydopropylethynyl-9-β-D-ribofuranosyl-7-deazapurine] | – | – | – | – | 0.68 | – | 0.97 µM and 1 µM | > 100 | – | 60 | – | – | – | – | – | – | – | – | > 100 | 11 µM and 8.2 µM | EC50 [1, 33]: > 100 µM; activity against enterovirus-71 in words [2]: inactive; EC50 [3, 34]: 0.86 µM and 1.8 µM; activity against MERS-CoV in words [4]: moderately active with low selectivity index; EC50 [4, 35]: 10 µM and 6.7 µM; CC50 [8]: > 100 µM; CC50 [8, 36]: 100 µM; activity against influenza A (H1N1) in words [9]: moderate activity; CC50 [10, 37]: 32 µM; CC50 [18]: > 100 µM; EC50 [15]: 0.13 µM and 0.126 µM; EC50 [19]: 1.1 µM; EC90 [19]: 0.65 µM; CC50 [20]: 17.5 µM
3 | CC#Cc1ncnc2c1ccn2[C@@H]1O[C@H](CO)[C@@H](O)[C@H]1O [3.1d, 6-(Prop-1-yn-1-yl)-9-β-D-ribofuranosyl-7-deazapurine] | – | 2.9 | 3.6 | 3.2 | 2.2 | > 3.6 | > 3.4 µM | 3.3 | 3.2 | 1.8 | 4.2 | 5.2 | 3.2 | 3.6 | 0.006 | 17.4 | 0.32 | 0.37 | – | 2.9 µM | EC50 [3, 34]: > 1.8 µM; CC50 ([8]; African green monkey): 3.4 µM; CC50 ([10]; human): 3.7 µM; CC50 [10, 37]: 12 µM; CC50 [14]: 6.1 µM; CC50 ([18]; dog): 4.9 µM; activity against human norovirus in words [15]: low nanomolar activity and high selectivity
4 | CC(C)C#Cc1ncnc2c1ccn2[C@@H]1O[C@H](CO)[C@@H](O)[C@H]1O [3.1e, 6-(3-Methylbut-1-yn-1-yl)-9-β-D-ribofuranosyl-7-deazapurine] | 4.2 | 9.2 | 24 | 1.3 | 1 | 3.2 | 2.4 µM | > 100 | 3.2 | – | 7.3 | 10 | > 100 | 34 | 0.396 | 39.5 | 3.2 | 1.8 | 4.3 | 3 µM | EC50 [1, 23]: > 100 µM; EC50 [4, 26]: 11 µM; EC50 [4, 35]: 14 µM; CC50 ([5]; Yellow fever virus CC50 Huh7): 28 µM; CC50 ([10]; human): 21 µM; EC50 [21, 38]: 4 µM; EC90 [21, 39]: 4.6 µM
5 | CCCC#Cc1ncnc2c1ccn2[C@@H]1O[C@H](CO)[C@@H](O)[C@H]1O [3.1f, 6-(Pent-1-yn-1-yl)-9-β-D-ribofuranosyl-7-deazapurine] | 2.2 | – | 12 | 1.6 | 1.8 | 3.2 | 3.7 µM | 110 | 2.2 | 31 | 9.9 | 10 | – | 63 | 0.002 | 38.7 | 0.75 | 0.96 | 1.6 | 2.3 µM | CC50 ([5]; Yellow fever virus CC50 Huh7): 28 µM; CC50 [8, 36]: 19 µM; CC50 ([10]; human): 11 µM; CC50 ([13]; CC50): > 100 µM; CC50 [14]: 9.1 µM; CC50 ([18]; dog): 5.1 µM; EC50 [21, 38]: 29 µM; EC90 [21, 39]: 17 µM; activity against human norovirus in words [15]: low nanomolar activity and high selectivity
6 | OC[C@H]1O[C@@H](n2ccc3c(C#CC4CCCC4)ncnc32)[C@H](O)[C@@H]1O [3.1g, 6-(Cydopentylethynyl)-9-β-D-ribofuranosyl-7-deazapurine] | – | – | – | – | 0.37 | – | 3.3 µM and 2.8 µM | 49 | – | 6 | – | – | – | – | – | – | – | – | 1.5 | > 8.4 µM | EC50 [1, 33]: > 100 µM; EC50 [3, 34]: 0.86 µM and 1.3 µM; activity against MERS-CoV in words [4]: moderately active with low selectivity index; CC50 [8, 36]: 100 µM; CC50 [10, 37]: 8.6 µM; CC50 [11]: 34 µM; EC50 ([21]; Neutral Red (Cytopathic effect/Toxicity)): 3.8 µM; EC90 ([21]; Visual (Virus yield reduction)): 1.1 µM; EC50 [15]: 0.438 µM; CC50 [20]: 25.8 µM
7 | OC[C@H]1O[C@@H](n2ccc3c(C#Cc4ccc(Cl)cc4)ncnc32)[C@H](O)[C@@H]1O [3.1j, 6-((4-Chlorophenyl)ethynyl)-9-β-D-ribofuranosyl-7-deazapurine] | > 32 | 1.2 | 12 | > 8.6 | > 6.5 | 3.2 | 3.3 µM | – | > 2.4 | 5 | 6.5 | 8.6 | 32 | 12 | 0.022 | 38.6 | 1.1 | 1 | > 31 | > 3.2 µM | EC50 [1, 23]: > 32 µM; EC50 [1, 33]: > 23 µM; EC50 [3, 34]: 0.8 µM; EC50 [4, 26]: > 32 µM; CC50 ([10]; human): 13 µM; CC50 [10, 37]: 28 µM; CC50 [14]: 2.4 µM; CC50 ([18]; dog): 3.2 µM
8 | C[C@@]1(O)[C@H](O)[C@@H](CO)O[C@H]1n1ccc2c(N)ncnc21 [7-Deaza-2′-C-methyladenosine] | – | – | – | – | – | – | – | – | – | – | – | – | – | – | – | – | – | – | – | – | EC50 [22]: 0.25 µM
9 | C[C@@]1(O)[C@H](O)[C@@H](CO)O[C@H]1n1cc(F)c2c(N)ncnc21 [7-fluoro-7-deaza-2′-C-methyladenosine] | – | – | – | – | – | – | – | – | – | – | – | – | – | – | – | – | – | – | – | – | EC50 [22]: 0.07 µM
10 | CCOC(=O)c1ccc(OCCC2CCN(c3ccc(C)nn3)CC2)cc1 [Pirodavir, pirodavir, reference compound] | 0.4 | – | – | – | – | – | – | – | – | – | – | – | – | – | – | – | – | – | 0.27 | – | CC50 ([13]; CC50): > 27 µM; EC50 [21, 38]: 0.35 µM; EC90 [21, 39]: 0.46 µM
